Here are results for 19 compounds from patent publication US9051304B2, “Carboxamide compounds and their use as calpain inhibitors V” (AbbVie Deutschland GmbH & Co. KG, priority 2009, dated 2015).

Holding throughout (type): biochemical
For experiment [1], the target named is T1, calpain-I isolated from human erythrocytes (Homo sapiens, UniProt P07384).
T1 construct: calpain-I—isolated from human erythrocytes; purchased Calbiochem 208713; host or cells: human erythrocytes (tissue isolate)
T1 sequence (P07384 1-714): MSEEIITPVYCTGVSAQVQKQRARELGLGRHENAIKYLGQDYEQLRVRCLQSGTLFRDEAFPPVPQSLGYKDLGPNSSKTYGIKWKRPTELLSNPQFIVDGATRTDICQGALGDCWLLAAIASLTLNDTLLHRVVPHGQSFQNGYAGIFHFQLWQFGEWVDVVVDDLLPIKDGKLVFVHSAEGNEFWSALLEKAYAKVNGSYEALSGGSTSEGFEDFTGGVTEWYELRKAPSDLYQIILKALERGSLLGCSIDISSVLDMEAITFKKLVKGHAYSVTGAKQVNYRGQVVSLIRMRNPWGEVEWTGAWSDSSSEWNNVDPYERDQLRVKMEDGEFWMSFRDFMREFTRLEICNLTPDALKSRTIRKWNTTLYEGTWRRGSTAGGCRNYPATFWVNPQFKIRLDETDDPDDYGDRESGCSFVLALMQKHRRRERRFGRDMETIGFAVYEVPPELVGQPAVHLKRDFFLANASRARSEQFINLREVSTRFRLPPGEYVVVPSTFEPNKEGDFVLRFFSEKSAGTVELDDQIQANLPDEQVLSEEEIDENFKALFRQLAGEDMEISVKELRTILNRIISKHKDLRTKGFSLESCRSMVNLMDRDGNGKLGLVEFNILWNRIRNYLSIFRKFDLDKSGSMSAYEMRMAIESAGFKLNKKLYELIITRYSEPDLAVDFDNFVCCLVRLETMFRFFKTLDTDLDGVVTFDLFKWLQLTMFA
T1 sequence (P04632 1-268 partner): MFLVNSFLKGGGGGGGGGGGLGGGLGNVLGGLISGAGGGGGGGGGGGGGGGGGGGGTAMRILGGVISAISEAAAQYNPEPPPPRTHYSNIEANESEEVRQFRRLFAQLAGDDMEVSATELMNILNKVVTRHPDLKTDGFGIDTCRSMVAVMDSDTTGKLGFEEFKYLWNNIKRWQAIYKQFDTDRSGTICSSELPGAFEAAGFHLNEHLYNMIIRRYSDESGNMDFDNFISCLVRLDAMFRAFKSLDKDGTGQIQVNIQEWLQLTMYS
The experiment can be described thus: Calpain I enzyme inhibition, kinetic fluorescence assay. The note with it: apparent Ki from IC50 by Cheng-Prussoff; human erythrocyte calpain-I. The method, then: (§1) I Enzyme Inhibition in vitro:
(§2) Testing for blockade of the corresponding enzymic activities was carried out by means of kinetic fluorescence assays (excitation 390 nm, emission 460 nm).
(§3) Apparent Ki values were calculated from the experimentally determined IC50 values by the Cheng-Prussoff relation assuming a reversible competitive enzyme inhibition.
20 nM calpain-I—isolated from human erythrocytes (Calbiochem #208713), 100 μM Suc-Leu-Tyr-AMC (Bachem #I-1355) as substrate in buffer with 62 mM imidazole, 0.3 mM CaCl2, 0.10% CHAPS, 0.05% BSA, 1 mM DTT at pH 7.3 and room temperature.

The target in experiment [2] is T2, cathepsin K activated from recombinant human procathepsin K (Homo sapiens, UniProt P43235).
T2 construct: purchased Calbiochem 342001; host or cells: E. coli
T2 sequence (P43235 115-329): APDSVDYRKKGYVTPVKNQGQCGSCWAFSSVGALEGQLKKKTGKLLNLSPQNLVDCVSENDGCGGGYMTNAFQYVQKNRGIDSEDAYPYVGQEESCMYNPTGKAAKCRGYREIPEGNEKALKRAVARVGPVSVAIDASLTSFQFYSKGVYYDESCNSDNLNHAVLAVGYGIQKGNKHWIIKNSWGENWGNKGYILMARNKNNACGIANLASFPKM
Kind of experiment: Cathepsin K enzyme inhibition, kinetic fluorescence assay. The conditions noted are these: selectivity ratio vs calpain. The method, then:
as §1, §2, §3
3 nM cathepsin K—activated from recombinant human procathepsin K from E. coli (Calbiochem #342001), 10 μM Z-Gly-Pro-Arg-AMC (Biomol #P-142) as substrate in 50 mM MES, 2 mM EDTA, 0.05% Brij 35, 2.5 mM L-cysteine, pH 6.0, room temperature.

Experiment [3] deals with T3, recombinant human cathepsin S (Homo sapiens, UniProt P25774).
T3 construct: purchased Calbiochem 219343; host or cells: E. coli
T3 sequence (P25774 115-331): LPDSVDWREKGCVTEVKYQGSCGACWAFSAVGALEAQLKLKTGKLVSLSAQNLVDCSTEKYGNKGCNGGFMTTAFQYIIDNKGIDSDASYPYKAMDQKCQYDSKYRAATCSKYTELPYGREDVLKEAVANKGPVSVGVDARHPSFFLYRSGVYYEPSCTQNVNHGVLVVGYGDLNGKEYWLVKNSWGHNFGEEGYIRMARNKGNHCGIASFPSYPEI
Kind of experiment: Cathepsin S enzyme inhibition, kinetic fluorescence assay. The conditions noted are these: selectivity ratio vs calpain. The method, then: as §1, §2, §3
0.5 nM recombinant human cathepsin S from E. coli (Calbiochem #219343), 20 μM Z-Val-Val-Arg-AMC (Bachem #I-1540) as substrate in 50 mM MES, 2 mM EDTA, 0.05% Brij 35, 2.5 mM L-cysteine, pH 6.0, room temperature.

The target of experiment [4] is T4, cathepsin L isolated from human liver (Homo sapiens, UniProt P07711).
T4 construct: cathepsin L—isolated from human liver; purchased Calbiochem 219402; host or cells: human liver (tissue isolate)
T4 sequence (P07711 114-333): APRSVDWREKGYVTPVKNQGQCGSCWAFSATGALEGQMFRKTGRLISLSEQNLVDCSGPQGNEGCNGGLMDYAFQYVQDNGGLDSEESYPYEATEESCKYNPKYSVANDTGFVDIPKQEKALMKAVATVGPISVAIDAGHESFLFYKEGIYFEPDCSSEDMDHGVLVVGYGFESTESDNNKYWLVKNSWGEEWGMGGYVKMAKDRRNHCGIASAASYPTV
The experiment can be described thus: Cathepsin L enzyme inhibition, kinetic fluorescence assay. The conditions noted are these: selectivity ratio vs calpain. The method, then: as §1, §2, §3
1 nM cathepsin L—isolated from human liver (Calbiochem #219402), 2 μM Z-Phe-Arg-AMC (Bachem #I-1160) as substrate in 50 mM MES, 2 mM EDTA, 0.05% Brij 35, 2.5 mM L-cysteine, pH 6.0, room temperature.

For experiment [5], the target named is T5, cathepsin B isolated from human liver (Homo sapiens, UniProt P07858).
T5 construct: cathepsin B—isolated from human liver; purchased Calbiochem 219362; host or cells: human liver (tissue isolate)
The experiment can be described thus: Cathepsin B enzyme inhibition, kinetic fluorescence assay. The conditions noted are these: selectivity ratio vs calpain. The method, then:
as §1, §2, §3
0.25 nM cathepsin B—isolated from human liver (Calbiochem #219362), 100 μM Z-Phe-Arg-AMC (Bachem #I-1160) as substrate 50 mM MES, 2 mM EDTA, 0.05% Brij 35, 2.5 mM L-cysteine, pH 6.0, room temperature.

The structures appear in SMILES notation. pKi: −log10 of the molar value.

Take `CONC(=O)C(=O)C(Cc1ccccc1)NC(=O)c1cccnc1-n1cc(F)c(-c2ccccc2)n1` (stereo not drawn) [Example 3, 2-(4-Fluoro-3-phenyl-1H-pyrazol-1-yl)-N-(4-(methoxyamino)-3,4-dioxo-1-phenylbutan-2-yl)nicotinamide]: in experiment [1], the negative-log Ki (pKi) (commonly the negative decadic logarithm of the Ki, by convention in mol/L) is above 6.70. With `CCCONC(=O)C(=O)C(Cc1ccccc1)NC(=O)c1cccnc1-n1ccc(-c2ccccc2)n1` (stereo not drawn) [Example 12, N-[3,4-Dioxo-1-phenyl-4-(propoxyamino)-2-butanyl]-2-(3-phenyl-1H-pyrazol-1-yl)nicotinamide], in experiment [1], the pKi was above 6.70. With `CONC(=O)C(=O)C(Cc1ccccc1)NC(=O)c1cccnc1-n1ccc(-c2ccc(N3CCOCC3)cc2)n1` (stereo not drawn) [Example 13, N-[4-(Methoxyamino)-3,4-dioxo-1-phenyl-2-butanyl]-2-{3-[4-(4-morpholinyl)phenyl]-1H-pyrazol-1-yl}nicotinamide], the “Sel cat. K (Ki(cathepsin K)/Ki(calpain) ratio)” value in experiment [2] is “+ (+ means 2≦Ki(cathepsin K)/Ki(calpain)≦4)”. Besides, the “Sel cat. S (Ki(cathepsin S)/Ki(calpain) ratio)” value in experiment [3] is given as “++ (++ means 10<Ki(cathepsin S)/Ki(calpain)≦50)”. Besides, the “Sel cat. L (Ki(cathepsin L)/Ki(calpain) ratio)” value in experiment [4] is listed as “++ (++ means 10<Ki(cathepsin L)/Ki(calpain)≦50)”. The “Sel cat. B (Ki(cathepsin B)/Ki(calpain) ratio)” value in experiment [5] was “∘”. Besides, the pKi in experiment [1] is 6.22 to 6.52. Turning to `CONC(=O)C(=O)C(Cc1ccccc1)NC(=O)c1cccnc1-n1ccc(-c2ccccc2)n1` (stereo not drawn) [Example 2, N-(4-(Methoxyamino)-3,4-dioxo-1-phenylbutan-2-yl)-2-(3-phenyl-1H-pyrazol-1-yl)nicotinamide], in experiment [1], the negative logarithm of the Ki (pKi) is above 6.70. Turning to `CCONC(=O)C(=O)C(Cc1ccc(F)cc1)NC(=O)c1cccnc1-n1ccc(-c2ccccc2)n1` (stereo not drawn) [Example 18, N-[4-(Ethoxyamino)-1-(4-fluorophenyl)-3,4-dioxo-2-butanyl]-2-(3-phenyl-1H-pyrazol-1-yl)nicotinamide], in experiment [1], the pKi was above 6.70.

As for `CC(C)ONC(=O)C(=O)C(Cc1ccccc1)NC(=O)c1cccnc1-n1ccc(-c2ccccc2)n1` (stereo not drawn) [Example 11, N-[4-(Isopropoxyamino)-3,4-dioxo-1-phenyl-2-butanyl]-2-(3-phenyl-1H-pyrazol-1-yl)nicotinamide], the negative logarithm of the Ki (pKi) in experiment [1] was above 6.70. Consider `NC(=O)C(=O)C(Cc1ccccc1)NC(=O)c1cccnc1-n1ccc(-c2ccc(F)cc2)n1` (stereo not drawn) [28 (comp.), N-(3-Amino-1-benzyl-2,3-dioxopropyl)-2-[3-(4-fluorophenyl)-1H-pyrazol-1-yl]nicotinamide, reference compound], for which the negative logarithm of the Ki (pKi) in experiment [1] was above 6.70. With `O=C(NOCC1CC1)C(=O)C(Cc1ccccc1)NC(=O)[C@H]1CCC(=O)N1Cc1ccccc1` (stereo partly drawn) [Example 31, (2R)-1-benzyl-N-(4-(cyclopropylmethoxyamino)-3,4-dioxo-1-phenylbutan-2-yl)-5-oxopyrrolidine-2-carboxamide], the “Sel cat. K (Ki(cathepsin K)/Ki(calpain) ratio)” value in experiment [2] was “∘”. Moreover, the “Sel cat. S (Ki(cathepsin S)/Ki(calpain) ratio)” value in experiment [3] is reported as “++ (++ means 10<Ki(cathepsin S)/Ki(calpain)≦50)”. Moreover, the “Sel cat. L (Ki(cathepsin L)/Ki(calpain) ratio)” value in experiment [4] is listed as “∘”. Further, in experiment [5], the “Sel cat. B (Ki(cathepsin B)/Ki(calpain) ratio)” value was “+ (+ means 2≦Ki(cathepsin B)/Ki(calpain)≦4)”. Besides, the pKi in experiment [1] was above 6.70. In the case of `CONC(=O)C(=O)C(Cc1ccccc1)NC(=O)c1cccnc1-n1cc(C)c(-c2ccccc2)n1` (stereo not drawn) [Example 4, N-[4-(Methoxyamino)-3,4-dioxo-1-phenylbutan-2-yl]-2-(4-methyl-3-phenyl-1H-pyrazol-1-yl)pyridine-3-carboxamide], in experiment [1], the negative logarithm of the Ki (pKi) was 6.22 to 6.52. Take `CONC(=O)C(=O)C(Cc1ccccc1)NC(=O)c1cccnc1-n1ccc(-c2ccc(F)cc2)n1` (stereo not drawn) [Example 1, 2-[3-(4-Fluorophenyl)-1H-pyrazol-1-yl]-N-[4-(methoxyamino)-3,4-dioxo-1-phenylbutan-2-yl]pyridine-3-carboxamide]: in experiment [1], the negative-log Ki (pKi) was 6.52 to 6.70. On to `CONC(=O)C(=O)C(Cc1ccc(F)cc1)NC(=O)c1cccnc1-n1ccc(-c2ccccc2)n1` (stereo not drawn) [Example 5, N-(1-(4-Fluorophenyl)-4-(methoxyamino)-3,4-dioxo-butan-2-yl)-2-(3-phenyl-1H-pyrazol-1-yl)nicotinamide], for which the negative logarithm of the Ki (pKi) in experiment [1] is 6.22 to 6.52. Regarding `O=C(NOCCN1CCOCC1)C(=O)C(Cc1ccccc1)NC(=O)c1cccnc1-n1ccc(-c2ccccc2)n1` (stereo not drawn) [Example 22, N-(4-{[2-(4-Morpholinyl)ethoxy]amino}-3,4-dioxo-1-phenyl-2-butanyl)-2-(3-phenyl-1H-pyrazol-1-yl)nicotinamide], in experiment [1], the pKi was 6.52 to 6.70. Take `O=C(NOC1CCC1)C(=O)C(Cc1ccccc1)NC(=O)c1cccnc1-n1ccc(-c2ccccc2)n1` (stereo not drawn) [Example 20, N-{4-[(Cyclobutyloxy)amino]-3,4-dioxo-1-phenyl-2-butanyl}-2-(3-phenyl-1H-pyrazol-1-yl)nicotinamide]: the pKi in experiment [1] is above 6.70. As to `O=C(NOCC1CC1)C(=O)C(Cc1ccccc1)NC(=O)c1cccnc1-n1ccc(-c2ccccc2)n1` (stereo not drawn) [Example 23, N-{4-[(Cyclopropylmethoxy)amino]-3,4-dioxo-1-phenyl-2-butanyl}-2-(3-phenyl-1H-pyrazol-1-yl)nicotinamide], the pKi in experiment [1] is above 6.70.

Consider `CCONC(=O)C(=O)C(Cc1ccccc1)NC(=O)c1cccnc1-n1cc(F)c(-c2ccccc2)n1` (stereo not drawn) [Example 19, N-[4-(Ethoxyamino)-3,4-dioxo-1-phenyl-2-butanyl]-2-(4-fluoro-3-phenyl-1H-pyrazol-1-yl)nicotinamide], for which, in experiment [1], the pKi is above 6.70. For `C=CCONC(=O)C(=O)C(Cc1ccccc1)NC(=O)c1cccnc1-n1ccc(-c2ccccc2)n1` (stereo not drawn) [Example 8, N-(4-(Allyloxyamino)-3,4-dioxo-1-phenylbutan-2-yl)-2-(3-phenyl-1H-pyrazol-1-yl)nicotinamide], the negative-log Ki (pKi) in experiment [1] was above 6.70.

As to `CONC(=O)C(=O)C(Cc1cccc(F)c1)NC(=O)c1cccnc1-n1ccc(-c2ccccc2)n1` (stereo not drawn) [Example 6, N-(1-(3-Fluorophenyl)-4-(methoxyamino)-3,4-dioxobutan-2-yl)-2-(3-phenyl-1H-pyrazol-1-yl)nicotinamide], the negative logarithm of the Ki (pKi) in experiment [1] is 6.52 to 6.70. Regarding `O=C(NOC1CCCC1)C(=O)C(Cc1ccccc1)NC(=O)c1cccnc1-n1ccc(-c2ccccc2)n1` (stereo not drawn) [Example 17, N-{4-[(Cyclopentyloxy)amino]-3,4-dioxo-1-phenyl-2-butanyl}-2-(3-phenyl-1H-pyrazol-1-yl)nicotinamide], the pKi in experiment [1] was 6.52 to 6.70. For the compound `CONC(=O)C(=O)C(Cc1ccccc1)NC(=O)c1cccnc1-n1ccc(-c2ccccc2F)n1` (stereo not drawn) [Example 25, 2-[3-(2-Fluorophenyl)-1H-pyrazol-1-yl]-N-[4-(methoxyamino)-3,4-dioxo-1-phenyl-2-butanyl]nicotinamide], the negative-log Ki (pKi) in experiment [1] was above 6.70.
